{"source": "patent US20020142436A1", "about": "“Human adenylate cyclase and use therefor” (priority 1995, published 2002)", "key": {"[1]": {"system": "AtT20 cells", "assay": "CRF-induced cAMP accumulation in AtT20 cells", "assay_type": "cell-based, mouse", "procedure": "Experiments for cAMP were all carried out in Hanks balanced salt solution containing 2 mM CaCl2 and 1 mM MgSO4 buffered with 25 mM HEPES pH 7.4 and supplemented with 0.25% (w/v) of bovine serum albumin. The cells were preincubated in serum free medium for 1 hour, after which blockers of phosphosdiesterase (isobutylmethylxanthine 0.5 mM (IBMX) and/or rolipram 0.1 mM) along with various other treatments were applied for 30 minutes at 37° C. Subsequently the cells were cooled to 22° C. for 5 minutes in a water bath and agonists were added for 10 minutes. The reaction was stopped by the addition of 0.2 mol/l HCl to achieve a final concentration of 0.1 mol/l (Brooker et al, (1979) Adv. in Cyclic Nucl. Res. Vol. 10, G. Brooker, P. Greengard and G. A. Robinson, Raven Press, New York, 2-34).\nIn some experiments cells were preincubated for 30 minutes in medium containing 2 mmol/l EGTA and no added Ca^2+, supplemented with 5 μmol/l A23187 and 2.5 μmol/l nifedipine in order to deplete rapidly mobilized cellular stores of Ca^2+. […] The rationale for this pretreatment is that calcineurin reportedly influences L-channel activity (Lai et al, (1993) J. Neurochem. 61:1333-1339; and Armstrong et al, (1987) Proc. Natl. Acad. Sci. U.S.A. 84:2518-2522), whereas the treatment regimen used here would make Ca^2+ entry independent of this regulation.\nThese compounds were made up in ethanol at 10^−3 mol/l and diluted with the incubation medium to the desired final concentrations. In some cases cells were preincubated with L685,818 the structural analogue of FK506 that binds to FKBP-12 and inhibits prolyl-isomerase activity but is devoid of immunosuppressant activity (Dumont et al, (1992) J. Exp. Med. 176:751-760) for 10 minutes before the addition of FK506 for 30 minutes at 37° C."}, "[2]": {"system": "calcineurin", "assay": "calcineurin activity in AtT20 cells (phosphocasein method)", "assay_type": "biochemical, mouse", "details": "1 μmol/l FK506, phosphocasein"}, "[3]": {"system": "AtT20 cells", "assay": "ACTH release by AtT20 cells", "assay_type": "cell-based, mouse"}, "[4]": {"system": "HEK293 cells", "assay": "CRF-induced and unstimulated cAMP in HEK293 cells without AC (wild type, sham or pcDNA3 vector)", "assay_type": "cell-based, human", "details": "FK506 2 μmol/l, L-685,818 100 μmol/l", "method": "Both expression plasmids (10 μg) were transfected into SV40-transformed monkey embryonic kidney (COS-7) cells grown in DMEM and 10% fetal bovine serum to 70% confluency in 75 cm^2 flasks following the double DEAE-dextran transfection protocol (Ishikawa et al, (1992) Nucl. Acids Res. 20:4367), while only AC cDNA was transfected into adenovirus-transformed human embryonic kidney (HEK293) cells as these express endogenous receptors for CRF (F. A. Antoni, unpublished data). In control transfections pcDNA3 vector DNA replaced the AC expression construct. […]"}, "[5]": {"system": "HEK293 cells transfected with AC", "assay": "cAMP in HEK293 cells transiently transfected with AC", "assay_type": "cell-based, human", "details": "L-685,818 100 μmol/l"}, "[6]": {"system": "HEK293 cells stably expressing AC", "assay": "cAMP production in HEK293 cell lines stably expressing AC", "assay_type": "cell-based, human", "method": "In particular cell lines derived from the human embryonic kidney cell line 293 (HEK293) have been generated and stably express AC. Briefly, the cells were transfected with pcDNA3 containing the full length AC DNA (clone JP 173—see Example 3) and cells were selected on the basis of resistance to G418 antibiotic (0.8 mg/ml) for 4 weeks. Individual clones of resistant cells were expanded and tested for cAMP production in response to CRF and the effects of immunosuppressants were also examined."}, "[7]": {"system": "HEK293 cells overexpressing human AC9", "assay": "Ca2+/calcineurin inhibition of cAMP production in HEK293 cells overexpressing human AC9", "assay_type": "cell-based", "procedure": "The complete coding sequence of human AC9 was cloned into the expression vector pcDNA3. This constuct and pcDNA3 (10 μg) were each linearised by PvuI digestion prior to electroporation into HEK293 cells. Stably transfected clones were selected for resistance to G418 (Gibco) at […] in Dulbecco's modified Eagle's medium (DMEM) supplemented with 10% foetal calf serum. A total of 12 clones were expanded and over-expression of human AC9 confirmed in 9 cell lines by immunoblotting using antisera raised against a pentadecapeptide derived from the N-terminus of mouse AC9 (Paterson et al, (1995) Biochem. Biophys. Res. Commun. 214:1000-8). […] Analysis of clone 7 is reported here.\nHEK-293 cells display complex intracellular Ca2+ handling mechanisms that may be controlled by cAMP and calcineurin (Lin et al, (1995) Mol. Pharmacol. 47:131-9; Gromada et al, (1995) FEBS Letts. 373:182-6; Querfurth et al, (1998) Biochem J. 334:79-86), and thus complicate the interpretation of the data. Therefore, intracellular stores of Ca^2+ were depleted to reduce the contribution of intracellular Ca^2+ pools to the intracellular free Ca^2+ signal. […] Two different Ca^2+ depletion protocols were used (Antoni et al, (1998) supra). […] The total cAMP content of the cells and the medium was determined after freeze-thawing and acetylation by radioimmunoassay (Antoni et al, (1995) J. Biol. Chem. 270:28055-61)."}, "[8]": {"biological_target": "FKBP-12 (Homo sapiens, UniProt P62942)", "sequence (P62942 whole entry, species assumed)": "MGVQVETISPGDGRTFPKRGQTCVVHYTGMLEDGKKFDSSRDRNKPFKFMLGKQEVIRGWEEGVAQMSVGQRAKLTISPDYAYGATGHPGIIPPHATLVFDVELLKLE", "details": "cited from earlier work"}, "[9]": {"system": "calcineurin", "details": "cited from earlier work"}}, "note": "“Also recorded” adds a separate entry of the source. Like-named read-outs stand apart in the source and are kept apart here."}
{"smiles": "CC[C@@H]1/C=C(\\C)[C@@H](O)[C@H](C)C[C@H](OC)[C@H]2O[C@@](O)(C(=O)C(=O)N3CCCC[C@H]3C(=O)O[C@H](/C(C)=C/[C@@H]3CC[C@@H](O)[C@H](OC)C3)[C@H](C)[C@@H](O)CC1=O)[C@H](C)C[C@@H]2OC", "note": "[L685,818]", "values": [{"measurement": "cAMP formation, compound given alone", "setting": "[1]", "value": "no discernible effect"}, {"measurement": "antagonism of the effect of FK506 on CRF-induced cAMP production", "setting": "[1]; 10 nmol/l CRF", "value": "antagonized"}, {"measurement": "effect on the inhibition of calcineurin activity by FK506", "setting": "[2]", "value": "blocked the inhibitory effect of FK506 on calcineurin-mediated dephosphorylation of phosphocasein"}, {"measurement": "ACTH secretion, compound given alone", "setting": "[3]", "value": "no discernible effect; also recorded: no effect on basal ACTH secretion"}, {"measurement": "antagonism of the effect of FK506 on CRF-induced ACTH release", "setting": "[3]; FK506 0.5 μmol/l", "value": "prevented"}, {"measurement": "cAMP levels in sham-transfected or pcDNA3-transfected cells", "setting": "[4]", "value": "no effect in sham-transfected or pcDNA3-transfected cells"}, {"measurement": "cAMP response to CRF", "setting": "[5]; FK506 2 μmol/l", "value": "no significant effect on CRF-induced cAMP production; also recorded: no effect on CRF-induced cAMP formation when given alone"}, {"measurement": "blockade of the enhancement of the CRF-induced cAMP response by FK506", "setting": "[5]; 1 nmol/l CRF", "value": "blocked the enhancement of the response to 1 nmol/l CRF by FK506"}, {"measurement": "blockade of the FK506 effect on CRF-induced cAMP production", "setting": "[6]", "value": "blocked"}, {"measurement": "cAMP production in hAC9 expressing cells", "setting": "[7]", "value": "had no effect on cAMP production"}, {"measurement": "inhibitory effect of Ca2+ on cAMP production", "setting": "[7]; FK506, cyclosporin A, rapamycin 10 μM, L685,818 50 μM, PDE blockers present", "value": "failed to block the inhibitory action of Ca^2+ on cAMP production"}, {"measurement": "FKBP-12 prolyl isomerase activity", "setting": "[8]", "value": "potent inhibitor"}, {"measurement": "blockade of calcineurin", "setting": "[9]", "value": "does not block calcineurin"}, {"measurement": "blockade of calcineurin", "setting": "[9]; listed as L-685,818", "value": "do not inhibit calcineurin"}]}
